Reference: US10710980B2, “Aminopyridine derivatives and their use as selective ALK-2 inhibitors” (priority 2016, dated 2020)

Key:
[1] = target: T1, wild-type ALK2 (aa172-499) (Homo sapiens (Human), UniProt Q04771); assay: ADPGlo biochemical autophosphorylation assay, ALK2; details: 15 μm ATP, 60 min at 32° C.
ALK3 (aa198-525) = ALK3 (aa198-525) (Homo sapiens (Human), UniProt P36894); assay: ADPGlo biochemical autophosphorylation assay, ALK3; details: 15 μm ATP, 60 min at 32° C.
[2] = target: T1, wild-type ALK2 (aa172-499); assay: Caliper biochemical peptide phosphorylation assay, ALK2; details: 15 μm ATP, 60 min at 30° C.; read-out: ALK2 EPK (IC50)
ALK1 (aa166-493) = ALK1 (aa166-493) (Homo sapiens (Human), UniProt P37023); assay: Caliper biochemical peptide phosphorylation assay, ALK1; details: 15 μm ATP, 60 min at 30° C.; read-out: ALK1 EPK (IC50)
ALK5 (aa162-503) = ALK5 (aa162-503) (Homo sapiens (Human), UniProt P36897); assay: Caliper biochemical peptide phosphorylation assay, ALK5; details: 15 μm ATP, 60 min at 30° C.; read-out: ALK5 EPK (IC50)
ALK6 (aa168-495) = ALK6 (aa168-495) (Homo sapiens (Human), UniProt O00238); assay: Caliper biochemical peptide phosphorylation assay, ALK6; details: 15 μm ATP, 60 min at 30° C.; read-out: ALK6 EPK (IC50)
[3] = tested on: BMP response element (BRE) luciferase reporter in HuH7 cells, BMP6 stimulated; assay: BMP signaling reporter gene assay; assay type: cell-based; details: Homo sapiens, Huh-7; HuH7 BRE-luciferase, BMP6 100 ng/ml, 5 hours; read-out: MSD BMP RGA IC50

Sequence of ALK6 (aa168-495) (O00238 168-495): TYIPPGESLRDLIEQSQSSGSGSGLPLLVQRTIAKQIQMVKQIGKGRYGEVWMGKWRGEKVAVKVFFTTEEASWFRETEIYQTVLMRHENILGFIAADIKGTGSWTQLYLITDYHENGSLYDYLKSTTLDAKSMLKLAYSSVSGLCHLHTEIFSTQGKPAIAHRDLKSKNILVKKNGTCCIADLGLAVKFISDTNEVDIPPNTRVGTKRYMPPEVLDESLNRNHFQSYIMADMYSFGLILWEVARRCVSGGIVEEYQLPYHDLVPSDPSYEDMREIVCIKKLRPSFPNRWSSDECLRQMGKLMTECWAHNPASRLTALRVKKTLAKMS
T1 sequence (Q04771 172-499): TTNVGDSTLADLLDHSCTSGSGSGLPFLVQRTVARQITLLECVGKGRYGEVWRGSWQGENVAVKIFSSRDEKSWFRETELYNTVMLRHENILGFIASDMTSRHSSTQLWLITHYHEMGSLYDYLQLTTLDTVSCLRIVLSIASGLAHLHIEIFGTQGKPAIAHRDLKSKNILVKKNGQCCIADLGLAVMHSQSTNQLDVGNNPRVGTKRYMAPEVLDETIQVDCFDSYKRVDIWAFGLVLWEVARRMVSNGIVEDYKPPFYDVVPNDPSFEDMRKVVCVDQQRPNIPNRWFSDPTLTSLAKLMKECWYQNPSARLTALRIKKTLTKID
Sequence of ALK5 (aa162-503) (P36897 162-503): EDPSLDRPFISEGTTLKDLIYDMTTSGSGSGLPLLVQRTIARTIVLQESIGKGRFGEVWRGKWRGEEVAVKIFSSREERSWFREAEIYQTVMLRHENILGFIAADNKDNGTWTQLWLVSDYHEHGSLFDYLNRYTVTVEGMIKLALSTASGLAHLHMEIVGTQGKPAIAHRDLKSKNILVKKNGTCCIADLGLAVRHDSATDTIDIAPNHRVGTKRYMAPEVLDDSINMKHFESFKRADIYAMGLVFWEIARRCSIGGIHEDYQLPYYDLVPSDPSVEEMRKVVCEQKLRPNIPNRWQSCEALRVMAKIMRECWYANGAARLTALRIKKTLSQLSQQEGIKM
Sequence of ALK1 (aa166-493) (P37023 166-493): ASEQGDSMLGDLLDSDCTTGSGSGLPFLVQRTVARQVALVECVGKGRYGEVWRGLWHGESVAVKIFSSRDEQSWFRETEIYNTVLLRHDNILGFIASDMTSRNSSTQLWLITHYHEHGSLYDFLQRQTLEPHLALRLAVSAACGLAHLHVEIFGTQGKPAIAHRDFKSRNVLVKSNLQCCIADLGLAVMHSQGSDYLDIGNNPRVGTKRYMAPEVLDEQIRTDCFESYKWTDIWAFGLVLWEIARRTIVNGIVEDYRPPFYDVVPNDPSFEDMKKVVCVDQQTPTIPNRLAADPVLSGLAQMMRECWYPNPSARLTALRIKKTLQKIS
Sequence of ALK3 (aa198-525) (P36894 198-525): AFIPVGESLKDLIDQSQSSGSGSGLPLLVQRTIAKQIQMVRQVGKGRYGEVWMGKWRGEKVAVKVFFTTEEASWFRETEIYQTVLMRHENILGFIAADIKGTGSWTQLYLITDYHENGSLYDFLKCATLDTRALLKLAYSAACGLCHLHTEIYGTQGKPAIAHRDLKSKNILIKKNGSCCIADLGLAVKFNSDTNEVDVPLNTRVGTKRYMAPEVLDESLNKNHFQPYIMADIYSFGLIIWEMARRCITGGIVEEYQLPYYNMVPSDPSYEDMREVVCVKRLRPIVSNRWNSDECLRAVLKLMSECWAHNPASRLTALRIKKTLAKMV

Compound | IC50 [1] [nM] | IC50 (ALK3 (aa198-525)) [nM] | IC50 [2] [nM] | IC50 (ALK1 (aa166-493)) [nM] | IC50 (ALK5 (aa162-503)) [nM] | IC50 (ALK6 (aa168-495)) [nM] | IC50 [3] [nM]
Nc1ncc(-c2ccc([C@]34C[C@H]3CN(CC3COC3)C4)cc2)cc1C(=O)N[C@H]1CC[C@H](O)CC1 [Example 38, 2-amino-N-((1r,4S)-4-hydroxycyclohexyl)-5-(4-((1S,5R)-3-(oxetan-3-ylmethyl)-3-azabicyclo[3.1.0]hexan-1-yl)phenyl)nicotinamide] | 7 | 1300 | 28 | 160 | 1500 | 2600 | 58
Nc1ncc(-c2cccc(C(=O)N3CCOCC3)c2)cc1C(=O)NC1CCCCC1 [Example 84, 2-amino-N-cyclohexyl-5-(3-(morpholine-4-carbonyl)phenyl)nicotinamide] | 2400 | 21900 | 350 | 20200 | 20200 | 20200 | 9500
COCCN1C[C@@H]2C[C@]2(c2ccc(-c3cnc(N)c(C(=O)N[C@H]4CC[C@H](O)CC4)c3)cc2)C1 [Example 20, 2-amino-N-((1r,4S)-4-hydroxycyclohexyl)-5-(4-((1S,5R)-3-(2-methoxyethyl)-3-azabicyclo[3.1.0]hexan-1-yl)phenyl)nicotinamide] | 7 | 1350 | 17 | 130 | 3800 | 3950 | 40
Nc1ncc(-c2ccc([C@@]34C[C@@H]3CN(C(CF)CF)C4)cc2)cc1C(=O)N[C@H]1CC[C@H](O)CC1 [Example 6, 2-amino-5-(4-((1R,5S)-3-(1,3-difluoropropan-2-yl)-3-azabicyclo[3.1.0]hexan-1-yl)phenyl)-N-((1r,4R)-4-hydroxycyclohexyl)nicotinamide] | 18 | 940 | 15 | 220 | 10000 | 5200 | 870
CC(F)(F)CN1C[C@@H]2C[C@]2(c2ccc(-c3cnc(N)c(C(=O)N[C@H]4CC[C@H](O)CC4)c3)cc2)C1 [Example 76, 2-amino-5-(4-((1S,5R)-3-(2,2-difluoropropyl)-3-azabicyclo[3.1.0]hexan-1-yl)phenyl)-N-((1r,4S)-4-hydroxycyclohexyl)nicotinamide] | 34 | 3200 | 79 | 370 | 9400 | 8400 | 2300
Nc1ncc(-c2ccc([C@@]34C[C@@H]3CN(CCN3CCOCC3)C4)cc2)cc1C(=O)NC12CCC(O)(CC1)CC2 [Example 15, 2-amino-N-(4-hydroxybicyclo[2.2.2]octan-1-yl)-5-(4-((1R,5S)-3-(2-morpholinoethyl)-3-azabicyclo[3.1.0]hexan-1-yl)phenyl)nicotinamide] | 29 | 967 | 20 | 370 | 3770 | 2230 | 74
C[C@]1(O)CC[C@H](NC(=O)c2cc(-c3ccc([C@@]45C[C@@H]4CN(C4CCC(F)(F)CC4)C5)cc3)cnc2N)CC1 [Example 82, 2-amino-5-(4-((1R,5S)-3-(4,4-difluorocyclohexyl)-3-azabicyclo[3.1.0]hexan-1-yl)phenyl)-N-((1r,4R)-4-hydroxy-4-methylcyclohexyl)nicotinamide] | 82 | 9500 | 117 | 1600 | 10000 | 10000 | 56
CC(C)N1C[C@@H]2C[C@]2(c2ccc(-c3cnc(N)c(C(=O)N[C@H]4CC[C@H](O)CC4)c3)cc2)C1 [Example 9, 2-amino-N-((1r,4S)-4-hydroxycyclohexyl)-5-(4-((1S,5R)-3-isopropyl-3-azabicyclo[3.1.0]hexan-1-yl)phenyl)nicotinamide] | 11 | 1600 | 11 | 127 | 3130 | 3130 | 43
C[C@H](c1ccc(-c2cnc(N)c(C(=O)NC34CC5CC(CC(O)(C5)C3)C4)c2)cc1)N1CC2(COC2)C1 [Example 68, 5-(4-((R)-1-(2-oxa-6-azaspiro[3.3]heptan-6-yl)ethyl)phenyl)-2-amino-N-((1r,3R)-3-hydroxyadamantan-1-yl)nicotinamide] | 34 | 8000 | 49 | 2500 | 10000 | 10000 | 950
Nc1ncc(-c2ccc([C@@]34C[C@@H]3CN(C3CCOCC3)C4)cc2)cc1C(=O)N[C@@H]1CC[C@@H](O)[C@@H](F)C1 [Example 21, 2-amino-N-((1R,3S,4R)-3-fluoro-4-hydroxycyclohexyl)-5-(4-((1R,5S)-3-(tetrahydro-2H-pyran-4-yl)-3-azabicyclo[3.1.0]hexan-1-yl)phenyl)nicotinamide] | 6 | 260 | 19 | 55 | 900 | 1000 | 35
C#CCN1C[C@H]2C[C@@]2(c2ccc(-c3cnc(N)c(C(=O)N[C@H]4CC[C@H](O)CC4)c3)cc2)C1 [Example 54, 2-amino-N-((1r,4R)-4-hydroxycyclohexyl)-5-(4-((1R,5S)-3-(prop-2-yn-1-yl)-3-azabicyclo[3.1.0]hexan-1-yl)phenyl)nicotinamide] | 11 | 920 | 33 | 140 | 5300 | 3500 | 395
CC(C)N1C[C@H]2C[C@@]2(c2ccc(-c3cnc(N)c(C(=O)NC45CC(CO)(C4)C5)c3)cc2)C1 [Example 36, 2-amino-N-(3-(hydroxymethyl)bicyclo[1.1.1]pentan-1-yl)-5-(4-((1R,5S)-3-isopropyl-3-azabicyclo[3.1.0]hexan-1-yl)phenyl)nicotinamide] | 16 | 1450 | 23 | 295 | 10000 | 7200 | 43
Nc1ncc(-c2ccc([C@]34C[C@H]3CN(CCC(F)(F)F)C4)cc2)cc1C(=O)N[C@H]1CC[C@H](O)CC1 [Example 17, 2-amino-N-((1r,4S)-4-hydroxycyclohexyl)-5-(4-((1S,5R)-3-(3,3,3-trifluoropropyl)-3-azabicyclo[3.1.0]hexan-1-yl)phenyl)nicotinamide] | 12 | 2000 | 14 | 110 | 1600 | 2400 | 150
C[C@H](c1ccc(-c2cnc(N)c(C(=O)N[C@]3(C)CC[C@@H](O)CC3)c2)cc1)N1CC2(COC2)C1 [Example 86, 5-(4-((R)-1-(2-oxa-6-azaspiro[3.3]heptan-6-yl)ethyl)phenyl)-2-amino-N-((1r,4R)-4-hydroxy-1-methylcyclohexyl)nicotinamide] | 110 | 8200 | 205 | 2300 | 10000 | 10000 | 1080
Nc1ncc(-c2ccc([C@@]34C[C@@H]3CN(CCOCC(F)(F)F)C4)cc2)cc1C(=O)N[C@H]1CC[C@H](O)CC1 [Example 41, 2-amino-N-((1r,4R)-4-hydroxycyclohexyl)-5-(4-((1R,5S)-3-(2-(2,2,2-trifluoroethoxy)ethyl)-3-azabicyclo[3.1.0]hexan-1-yl)phenyl)nicotinamide] | 19 | 1800 | 23 | 310 | 6700 | 6900 | 158
Nc1ncc(-c2ccc([C@]34C[C@H]3CN(C3CCOCC3)C4)cc2)cc1C(=O)NC12CC(CO)(C1)C2 [Example 28, 2-amino-N-(3-(hydroxymethyl)bicyclo[1.1.1]pentan-1-yl)-5-(4-((1S,5R)-3-(tetrahydro-2H-pyran-4-yl)-3-azabicyclo[3.1.0]hexan-1-yl)phenyl)nicotinamide] | 11 | 530 | 18 | 250 | 9400 | 3300 | 17
C[C@H](c1ccc(-c2cnc(N)c(C(=O)N[C@H]3CC[C@](C)(O)CC3)c2)cc1)N1CC2(COC2)C1 [Example 59, 5-(4-((R)-1-(2-oxa-6-azaspiro[3.3]heptan-6-yl)ethyl)phenyl)-2-amino-N-((1r,4R)-4-hydroxy-4-methylcyclohexyl)nicotinamide] | 24 | 2700 | 33 | 770 | 9100 | 7700 | 405
Nc1ncc(-c2ccc(OCCCN3CCCCC3)cc2)cc1C(=O)NC1CCCCC1 [Example 43, 2-amino-N-cyclohexyl-5-(4-(3-(piperidin-1-yl)propoxy)phenyl)nicotinamide] | 31 | 2350 | 25 | 765 | 3500 | 11000 | 130
Nc1ncc(-c2ccc(N3CCCCC3)cc2)cc1C(=O)NC1CCCCC1 [Example 61, 2-amino-N-cyclohexyl-5-(4-(piperidin-1-yl)phenyl)nicotinamide] | 43 | 2100 | 35 | 940 | 7200 | 20200 | 2300
